# In ChEMBL document CHEMBL3045862, “PRE-CLINICAL AND CLINICAL PHARMACOKINETICS OF THE DIASTEREOMERS OF ARTEETHER, A POTENT ANTIMALARIAL” (Med Chem Res, 2004):
# Legend:
# [1] = Elimination half life in Rattus norvegicus Sprague-Dawley (rat) at 9 mg/kg, administered intramuscularly; type: ADME, organism-based; design: dose 9 mg/kg, route intramuscular; details: in vivo, im, read-out: beta t1/2 (converted)
# Rattus norvegicus [2] = assay: AUC (0 to infinity) in Rattus norvegicus Sprague-Dawley (rat) at 9 mg/kg, administered intramuscularly; type: ADME, organism-based, Plasma; design: time infinity, dose 9 mg/kg, route intramuscular; details: in vivo, im
# Rattus norvegicus [3] = assay: Dose normalized AUC in Rattus norvegicus Sprague-Dawley (rat) at 9 mg/kg, administered intramuscularly; type: ADME, organism-based; design: dose 9 mg/kg, route intramuscular; details: in vivo, im
# [4] = Tmax in Rattus norvegicus Sprague-Dawley (rat) at 9 mg/kg, administered intramuscularly; type: ADME, organism-based; design: dose 9 mg/kg, route intramuscular; details: in vivo, im
# [5] = Cmax in Rattus norvegicus Sprague-Dawley (rat) at 9 mg/kg, administered intramuscularly; type: ADME, organism-based; design: dose 9 mg/kg, route intramuscular; details: in vivo, im
# Rhesus monkey [6] = assay: AUC (0 to infinity) in Macaca mulatta (Rhesus monkey) at 50 mg/kg, po; type: ADME, organism-based, Plasma; design: time infinity, dose 50 mg/kg, route oral; details: in vivo
# Rhesus monkey [7] = assay: Dose normalized AUC in Macaca mulatta (Rhesus monkey) at 50 mg/kg, po; type: ADME, organism-based; design: dose 50 mg/kg, route oral; details: in vivo
# [8] = Tmax in Macaca mulatta (Rhesus monkey) at 50 mg/kg, po; type: ADME, organism-based; design: dose 50 mg/kg, route oral; details: in vivo
# [9] = Cmax in Macaca mulatta (Rhesus monkey) at 50 mg/kg, po; type: ADME, organism-based; design: dose 50 mg/kg, route oral; details: in vivo
# Rattus norvegicus [10] = assay: Volume of distribution in Rattus norvegicus Sprague-Dawley (rat) at 9 mg/kg, po; type: ADME, organism-based; design: dose 9 mg/kg, route oral; details: in vivo
# Rattus norvegicus [11] = assay: Clearance in Rattus norvegicus Sprague-Dawley (rat) at 9 mg/kg, po; type: ADME, organism-based; design: dose 9 mg/kg, route oral; details: in vivo
# [12] = Mean residence time in Rattus norvegicus Sprague-Dawley (rat) at 9 mg/kg, po; type: ADME, organism-based; design: dose 9 mg/kg, route oral; details: in vivo
# [13] = Elimination half life in Rattus norvegicus Sprague-Dawley (rat) at 9 mg/kg, po; type: ADME, organism-based; design: dose 9 mg/kg, route oral; details: in vivo, read-out: beta t1/2 (converted)
# Rattus norvegicus [14] = assay: Dose normalized AUC in Rattus norvegicus Sprague-Dawley (rat) at 9 mg/kg, po; type: ADME, organism-based; design: dose 9 mg/kg, route oral; details: in vivo
# Rattus norvegicus [15] = assay: AUC (0 to infinity) in Rattus norvegicus Sprague-Dawley (rat) at 9 mg/kg, po; type: ADME, organism-based, Plasma; design: time infinity, dose 9 mg/kg, route oral; details: in vivo
# [16] = Tmax in Rattus norvegicus Sprague-Dawley (rat) at 9 mg/kg, po; type: ADME, organism-based; design: dose 9 mg/kg, route oral; details: in vivo
# [17] = Cmax in Rattus norvegicus Sprague-Dawley (rat) at 9 mg/kg, po; type: ADME, organism-based; design: dose 9 mg/kg, route oral; details: in vivo
# [18] = Volume of distribution in Rattus norvegicus Sprague-Dawley (rat) at 2 mg/kg, iv; type: ADME, organism-based; design: dose 2 mg/kg, route intravenous; details: in vivo
# Rattus norvegicus [19] = assay: Clearance in Rattus norvegicus Sprague-Dawley (rat) at 2 mg/kg, iv; type: ADME, organism-based; design: dose 2 mg/kg, route intravenous; details: in vivo
# [20] = Mean residence time in Rattus norvegicus Sprague-Dawley (rat) at 2 mg/kg, iv; type: ADME, organism-based; design: dose 2 mg/kg, route intravenous; details: in vivo
# [21] = Elimination half life in Rattus norvegicus Sprague-Dawley (rat) at 2 mg/kg, iv; type: ADME, organism-based; design: dose 2 mg/kg, route intravenous; details: in vivo, read-out: beta t1/2 (converted)
# Rattus norvegicus [22] = assay: Dose normalized AUC in Rattus norvegicus Sprague-Dawley (rat) at 2 mg/kg, iv; type: ADME, organism-based; design: dose 2 mg/kg, route intravenous; details: in vivo
# Rattus norvegicus [23] = assay: AUC (0 to infinity) in Rattus norvegicus Sprague-Dawley (rat) at 2 mg/kg, iv; type: ADME, organism-based, Plasma; design: time infinity, dose 2 mg/kg, route intravenous; details: in vivo
# Rattus norvegicus [24] = assay: Volume of distribution in Rattus norvegicus Sprague-Dawley (rat) at 30 mg/kg, po; type: ADME, organism-based; design: dose 30 mg/kg, route oral; details: in vivo
# Rattus norvegicus [25] = assay: Clearance in Rattus norvegicus Sprague-Dawley (rat) at 30 mg/kg, po; type: ADME, organism-based; design: dose 30 mg/kg, route oral; details: in vivo
# [26] = Elimination half life in Rattus norvegicus Sprague-Dawley (rat) at 30 mg/kg, po; type: ADME, organism-based; design: dose 30 mg/kg, route oral; details: in vivo, read-out: beta t1/2 (converted)
# [27] = Mean residence time in Rattus norvegicus Sprague-Dawley (rat) at 30 mg/kg, po; type: ADME, organism-based; design: dose 30 mg/kg, route oral; details: in vivo
# Rattus norvegicus [28] = assay: AUC (0 to infinity) in Rattus norvegicus Sprague-Dawley (rat) at 30 mg/kg, po; type: ADME, organism-based, Plasma; design: time infinity, dose 30 mg/kg, route oral; details: in vivo
# Rattus norvegicus [29] = assay: Dose normalized AUC in Rattus norvegicus Sprague-Dawley (rat) at 30 mg/kg, po; type: ADME, organism-based; design: dose 30 mg/kg, route oral; details: in vivo
# [30] = Tmax in Rattus norvegicus Sprague-Dawley (rat) at 30 mg/kg, po; type: ADME, organism-based; design: dose 30 mg/kg, route oral; details: in vivo
# Rattus norvegicus [31] = assay: Volume of distribution in Rattus norvegicus Sprague-Dawley (rat) at 17.5 mg/kg, po; type: ADME, organism-based; design: dose 17.5 mg/kg, route oral; details: in vivo
# [32] = Cmax in Rattus norvegicus Sprague-Dawley (rat) at 30 mg/kg, po; type: ADME, organism-based; design: dose 30 mg/kg, route oral; details: in vivo
# Rattus norvegicus [33] = assay: Clearance in Rattus norvegicus Sprague-Dawley (rat) at 17.5 mg/kg, po; type: ADME, organism-based; design: dose 17.5 mg/kg, route oral; details: in vivo
# [34] = Elimination half life in Rattus norvegicus Sprague-Dawley (rat) at 17.5 mg/kg, po; type: ADME, organism-based; design: dose 17.5 mg/kg, route oral; details: in vivo, read-out: beta t1/2 (converted)
# [35] = Mean residence time in Rattus norvegicus Sprague-Dawley (rat) at 17.5 mg/kg, po; type: ADME, organism-based; design: dose 17.5 mg/kg, route oral; details: in vivo
# Rattus norvegicus [36] = assay: Dose normalized AUC in Rattus norvegicus Sprague-Dawley (rat) at 17.5 mg/kg, po; type: ADME, organism-based; design: dose 17.5 mg/kg, route oral; details: in vivo
# [37] = Tmax in Rattus norvegicus Sprague-Dawley (rat) at 17.5 mg/kg, po; type: ADME, organism-based; design: dose 17.5 mg/kg, route oral; details: in vivo
# Rattus norvegicus [38] = assay: AUC (0 to infinity) in Rattus norvegicus Sprague-Dawley (rat) at 17.5 mg/kg, po; type: ADME, organism-based, Plasma; design: time infinity, dose 17.5 mg/kg, route oral; details: in vivo
# [39] = Cmax in Rattus norvegicus Sprague-Dawley (rat) at 17.5 mg/kg, po; type: ADME, organism-based; design: dose 17.5 mg/kg, route oral; details: in vivo
# Rattus norvegicus [40] = assay: Volume of distribution in Rattus norvegicus Sprague-Dawley (rat) at 30 mg/kg, administered intramuscularly; type: ADME, organism-based; design: dose 30 mg/kg, route intramuscular; details: in vivo, im
# [41] = Mean residence time in Rattus norvegicus Sprague-Dawley (rat) at 30 mg/kg, administered intramuscularly; type: ADME, organism-based; design: dose 30 mg/kg, route intramuscular; details: in vivo, im
# Rattus norvegicus [42] = assay: Clearance in Rattus norvegicus Sprague-Dawley (rat) at 30 mg/kg, administered intramuscularly; type: ADME, organism-based; design: dose 30 mg/kg, route intramuscular; details: in vivo, im
smiles,measurement,setting,value
CCO[C@@H]1O[C@@H]2O[C@]3(C)CC[C@H]4[C@H](C)CC[C@@H]([C@H]1C)[C@@]24OO3 [ALPHA-ARTEETHER],half-life,[1],1320 min
same,AUC,Rattus norvegicus [2],1058.5 ng·h/mL
same,AUC/dose,Rattus norvegicus [3],392 ng·h/mL
same,Tmax,[4],30 min
same,Cmax,[5],52.3 ng/mL
same,AUC,Rhesus monkey [6],6.6 ng·h/mL
same,AUC/dose,Rhesus monkey [7],0.4 ng·h/mL
same,Tmax,[8],13.3 min
same,Cmax,[9],3.9 ng/mL
same,Vd,Rattus norvegicus [10],122.2 L/kg
same,CL,Rattus norvegicus [11],36 L/h/kg
same,MRT,[12],4.3 h
same,half-life,[13],144 min
same,AUC/dose,Rattus norvegicus [14],27.3 ng·h/mL
same,AUC,Rattus norvegicus [15],73.8 ng·h/mL
same,Tmax,[16],5 min
same,Cmax,[17],33.4 ng/mL
same,Vd,[18],3.6 L/kg
same,CL,Rattus norvegicus [19],4.5 L/h/kg
same,MRT,[20],36 min
same,half-life,[21],33 min
same,AUC/dose,Rattus norvegicus [22],219.5 ng·h/mL
same,AUC,Rattus norvegicus [23],131.7 ng·h/mL
same,Vd,Rattus norvegicus [24],176.5 L/kg
same,CL,Rattus norvegicus [25],79.9 L/h/kg
same,half-life,[26],90 min
same,MRT,[27],1.8 h
same,AUC,Rattus norvegicus [28],111.5 ng·h/mL
same,AUC/dose,Rattus norvegicus [29],12.4 ng·h/mL
same,Tmax,[30],5 min
same,Vd,Rattus norvegicus [31],244.3 L/kg
same,Cmax,[32],103 ng/mL
same,CL,Rattus norvegicus [33],102.5 L/h/kg
same,half-life,[34],102 min
same,MRT,[35],1.9 h
same,AUC/dose,Rattus norvegicus [36],9.7 ng·h/mL
same,Tmax,[37],5 min
same,AUC,Rattus norvegicus [38],50.9 ng·h/mL
same,Cmax,[39],37.6 ng/mL
same,Vd,Rattus norvegicus [40],253.3 L/kg
same,MRT,[41],14.4 h
same,CL,Rattus norvegicus [42],14.8 L/h/kg
